Test results as given in patent US4476120A, “Thiolic derivatives of erythromycin having therapeutic activity, and pharmaceutical compositions containing them” (Sigma Tau Indistrie Farmaceutiche Riunites, p.A, priority 1982, dated 1984).
Converted amounts (≈) assume the structure as drawn.

Columns and labels:
[1] = test system: H. tubercolosis SS 03; format: cell-based; conditions: Brain Heart Infusion, estolate and RV11-RV15 previously hydrolized, unit assumed
Description: (§1) In the following table I the MIC/ml values are indicated corresponding to the lowest concentration capable of inducing a complete inhibition of the bacterial development.

[2] = test system: Kl. pneumoniae SS 04; format: cell-based; conditions: Brain Heart Infusion, estolate and RV11-RV15 previously hydrolized, unit assumed
Description: as §1

[3] = test system: B. subtilis SS 127; format: cell-based; conditions: Brain Heart Infusion, estolate and RV11-RV15 previously hydrolized, unit assumed
[4] = test system: B. subtilis ATCC 6633; format: cell-based; conditions: Brain Heart Infusion, estolate and RV11-RV15 previously hydrolized, unit assumed
[5] = test system: Ps. aeruginosa SS 10; format: cell-based; conditions: Brain Heart Infusion, estolate and RV11-RV15 previously hydrolized, unit assumed
[6] = test system: Strept. haemolyticus SS 18; format: cell-based; conditions: Brain Heart Infusion, estolate and RV11-RV15 previously hydrolized, unit assumed
[7] = test system: Pr. mirabilis SS 09; format: cell-based; conditions: Brain Heart Infusion, estolate and RV11-RV15 previously hydrolized, unit assumed
[8] = test system: D. pneumoniae SS 23; format: cell-based; conditions: Brain Heart Infusion, estolate and RV11-RV15 previously hydrolized, unit assumed
[9] = test system: H. pertussis SS 03; format: cell-based; conditions: Brain Heart Infusion, estolate and RV11-RV15 previously hydrolized, unit assumed
[10] = test system: Br. abortus SS 7; format: cell-based; conditions: Brain Heart Infusion, estolate and RV11-RV15 previously hydrolized, unit assumed
[11] = test system: E. cloacae SS 07; format: cell-based; conditions: Brain Heart Infusion, estolate and RV11-RV15 previously hydrolized, unit assumed
[12] = Histological examination of bronchi after SO2 inhalation; format: in vivo, Sprague Dawley male rats; conditions: for histological appearance of non obstructed bronchi: free non obstructed
[13] = test system: E. coli SS 06; format: cell-based; conditions: Brain Heart Infusion, estolate and RV11-RV15 previously hydrolized, unit assumed
[14] = test system: S. infantis SS 08; format: cell-based; conditions: Brain Heart Infusion, estolate and RV11-RV15 previously hydrolized, unit assumed
[15] = test system: B. anthranis SS 08; format: cell-based; conditions: Brain Heart Infusion, estolate and RV11-RV15 previously hydrolized, unit assumed
[16] = test system: C. diphtheriae SS 19; format: cell-based; conditions: Brain Heart Infusion, estolate and RV11-RV15 previously hydrolized, unit assumed
[17] = test system: Strept. faecalis SS 19; format: cell-based; conditions: Brain Heart Infusion, estolate and RV11-RV15 previously hydrolized, unit assumed
[18] = test system: Staph. aureus SS 10; format: cell-based; conditions: Brain Heart Infusion, estolate and RV11-RV15 previously hydrolized, unit assumed
[19] = test system: S. lutea ATCC 9341; format: cell-based; conditions: Brain Heart Infusion, estolate and RV11-RV15 previously hydrolized, unit assumed
[20] = test system: B. anthranis SS 09; format: cell-based; conditions: B. anthranis SS 09 (14 bis); Brain Heart Infusion; estolate and RV11-RV15 previously hydrolized; unit assumed
[21] = test system: Kl. aerogenes SS 71; format: cell-based; conditions: Brain Heart Infusion, estolate and RV11-RV15 previously hydrolized, unit assumed
[22] = test system: Staph. aureus SS 08; format: cell-based; conditions: Brain Heart Infusion, estolate and RV11-RV15 previously hydrolized, unit assumed
[23] = test system: Staph. aureus SS 09; format: cell-based; conditions: Brain Heart Infusion, estolate and RV11-RV15 previously hydrolized, unit assumed
[24] = test system: E. aerogenes SS 011; format: cell-based; conditions: Brain Heart Infusion, estolate and RV11-RV15 previously hydrolized, unit assumed
[25] = test system: Cl. tetani SS 17; format: cell-based; conditions: Brain Heart Infusion, estolate and RV11-RV15 previously hydrolized, unit assumed
[26] = test system: Staph. aureus SS 07; test: Experimental infection induced by Staph. aureus SS 07; format: in vivo, Swiss white mice; conditions: Staph. aureus SS 07, mg/kg of erythromycin, survival after 7 days, 10080 min
Outline: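 Swiss mice of 20 g infected parenterally with lethal amounts of Staph. aureus SS 07 or D. pneumoniae SS 23. Antibiotics were given at infection and again 6 and 24 h later. ED50 was derived from survival at 7 days.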

[27] = test system: Staph. aureus SS 07; format: cell-based; conditions: Brain Heart Infusion, estolate and RV11-RV15 previously hydrolized, unit assumed
[28] = test system: Citrobacter SS 05; format: cell-based; conditions: Brain Heart Infusion, estolate and RV11-RV15 previously hydrolized, unit assumed
[29] = test system: H. influentiae SS 02; format: cell-based; conditions: Brain Heart Infusion, estolate and RV11-RV15 previously hydrolized, unit assumed
[30] = test system: B. cereus ATCC 11778; format: cell-based; conditions: Brain Heart Infusion, estolate and RV11-RV15 previously hydrolized, unit assumed
[31] = test system: Br. melitensis SS 19; format: cell-based; conditions: unit assumed
[32] = test system: Strept. haemolyticus SS 17; format: cell-based; conditions: Brain Heart Infusion, estolate and RV11-RV15 previously hydrolized, unit assumed
[33] = test system: Staph. albus SS 03; format: cell-based; conditions: Brain Heart Infusion, estolate and RV11-RV15 previously hydrolized, unit assumed
[34] = test system: E. coli SS 04; format: cell-based; conditions: Brain Heart Infusion, estolate and RV11-RV15 previously hydrolized, unit assumed
[35] = test system: Pr. vulgaris SS 10; format: cell-based; conditions: Brain Heart Infusion, estolate and RV11-RV15 previously hydrolized, unit assumed
[36] = test system: Staph. albus SS 04; format: cell-based; conditions: Brain Heart Infusion, estolate and RV11-RV15 previously hydrolized, unit assumed
[37] = test system: E. coli SS 05; format: cell-based; conditions: Brain Heart Infusion, estolate and RV11-RV15 previously hydrolized, unit assumed
[38] = Mucolytic activity: obstruction of the bronchial tract after SO2 inhalation; format: in vivo, Sprague Dawley male rats; conditions: SO2, 15 days
[39] = test system: E. coli SS 07; format: cell-based; conditions: Brain Heart Infusion, estolate and RV11-RV15 previously hydrolized, unit assumed
[40] = Acute toxicity; format: in vivo; conditions: mortality 10 days after treatment, mice
Method: The acute toxicity was assessed in Swiss white mice by oral and intravenous route. The LD50 values have been calculated by the methods of Probits, starting from the mortality recorded 10 days after the treatment.

[41] = test system: S. heidelberg SS 18; format: cell-based; conditions: Brain Heart Infusion, estolate and RV11-RV15 previously hydrolized, unit assumed
[42] = test system: Citrobacter SS 09; format: cell-based; conditions: Brain Heart Infusion, estolate and RV11-RV15 previously hydrolized, unit assumed

CC[C@H]1OC(=O)[C@H](C)[C@@H](O[C@H]2C[C@@](C)(OC)[C@@H](O)[C@H](C)O2)[C@H](C)[C@@H](O[C@@H]2O[C@H](C)C[C@H](N(C)C)[C@H]2O)[C@](C)(O)C[C@@H](C)C(=O)[C@H](C)[C@@H](O)[C@]1(C)O [RV05, erythromycin-N-acetylcysteinate]
MIC [1]: 50 µg/mL (≈ 68.1 µM) | MIC [2]: 50 µg/mL (≈ 68.1 µM) | MIC [3]: 0.01 µg/mL (≈ 0.0136 µM) | MIC [4]: 0.01 µg/mL (≈ 0.0136 µM) | MIC [5]: 200 µg/mL (≈ 273 µM) | MIC [6]: 0.8 µg/mL (≈ 1.09 µM) | MIC [7]: > 200 µg/mL | MIC [8]: 0.05 µg/mL (≈ 0.0681 µM) | MIC [9]: 0.2 µg/mL (≈ 0.273 µM) | MIC [10]: 12 µg/mL (≈ 16.4 µM) | MIC [11]: > 200 µg/mL | histological appearance of non obstructed bronchi ([12]; i.m., 250 mg/kg): practically normal appearance | histological appearance of obstructed bronchial tract ([12]; i.m., 250 mg/kg): an appearance like that of the control animals | MIC [13]: 100 µg/mL (≈ 136 µM) | MIC [14]: 100 µg/mL (≈ 136 µM) | MIC [15]: 0.4 µg/mL (≈ 0.545 µM) | MIC [16]: 0.05 µg/mL (≈ 0.0681 µM) | MIC [17]: 0.2 µg/mL (≈ 0.273 µM) | MIC [18]: 0.025 µg/mL (≈ 0.0341 µM) | MIC [19]: 0.01 µg/mL (≈ 0.0136 µM) | MIC [20]: 0.4 µg/mL (≈ 0.545 µM) | MIC [21]: 50 µg/mL (≈ 68.1 µM) | MIC [22]: 0.025 µg/mL (≈ 0.0341 µM) | MIC [23]: 0.1 µg/mL (≈ 0.136 µM) | MIC [24]: 100 µg/mL (≈ 136 µM) | MIC [25]: 0.2 µg/mL (≈ 0.273 µM) | ED50 (reliability limits) ([26]; os): 2.08 (2.38-1.83) mg/kg | ED50 (reliability limits) ([26]; s.c.): 1.33 (1.61-1.10) mg/kg | MIC [27]: 0.025 µg/mL (≈ 0.0341 µM) | MIC [28]: > 200 µg/mL | MIC [29]: 0.8 µg/mL (≈ 1.09 µM) | MIC [30]: 0.4 µg/mL (≈ 0.545 µM) | MIC [31]: 3 µg/mL (≈ 4.09 µM) | MIC [32]: 3 µg/mL (≈ 4.09 µM) | MIC [33]: 0.05 µg/mL (≈ 0.0681 µM) | MIC [34]: 100 µg/mL (≈ 136 µM) | MIC [35]: > 200 µg/mL | MIC [36]: 0.025 µg/mL (≈ 0.0341 µM) | MIC [37]: 25 µg/mL (≈ 34.1 µM) | Partial obstruction (% incidence) ([38]; i.m., 250 mg/kg): 6.66% | Total obstruction, compact plug (% incidence) ([38]; i.m., 250 mg/kg): 20% | Total obstruction, nodular mass (% incidence) ([38]; i.m., 250 mg/kg): 13.33% | Total obstruction, pimply mass (% incidence) ([38]; i.m., 250 mg/kg): 6.66% | MIC [39]: 25 µg/mL (≈ 34.1 µM) | LD50 (reliability limits) ([40]; i.v., 14400 min): 472.84 (529.08-442.57) mg.kg | LD50 (reliability limits) ([40]; os): > 3000 mg·kg | MIC [41]: 100 µg/mL (≈ 136 µM) | MIC [42]: > 200 µg/mL

CCC(=O)O[C@H]1[C@H](O[C@@H]2[C@@H](C)[C@H](O[C@H]3C[C@@](C)(OC)[C@@H](O)[C@H](C)O3)[C@@H](C)C(=O)O[C@H](CC)[C@@](C)(O)[C@H](O)[C@@H](C)C(=O)[C@H](C)C[C@@]2(C)O)O[C@H](C)C[C@@H]1N(C)C [RV11, erythromycin-monopropionate-alpha-mercaptosuccinate]
MIC [1]: 50 µg/mL (≈ 63.3 µM) | MIC [2]: 200 µg/mL (≈ 253 µM) | MIC [3]: 0.05 µg/mL (≈ 0.0633 µM) | MIC [4]: 0.025 µg/mL (≈ 0.0316 µM) | MIC [5]: 100 µg/mL (≈ 127 µM) | MIC [6]: 1.5 µg/mL (≈ 1.9 µM) | MIC [7]: > 200 µg/mL | MIC [8]: 0.025 µg/mL (≈ 0.0316 µM) | MIC [9]: 0.4 µg/mL (≈ 0.506 µM) | MIC [10]: 6 µg/mL (≈ 7.59 µM) | MIC [11]: > 200 µg/mL | histological appearance of non obstructed bronchi ([12]; oral, 500 mg/kg): presence of bronchi having almost normal appearance | histological appearance of obstructed bronchial tract ([12]; oral, 500 mg/kg): fully like that of the control animals | MIC [13]: 50 µg/mL (≈ 63.3 µM) | MIC [14]: 100 µg/mL (≈ 127 µM) | MIC [15]: 0.8 µg/mL (≈ 1.01 µM) | MIC [16]: 0.01 µg/mL (≈ 0.0127 µM) | MIC [17]: 0.05 µg/mL (≈ 0.0633 µM) | MIC [18]: 0.025 µg/mL (≈ 0.0316 µM) | MIC [19]: 0.01 µg/mL (≈ 0.0127 µM) | MIC [20]: 0.4 µg/mL (≈ 0.506 µM) | MIC [21]: 100 µg/mL (≈ 127 µM) | MIC [22]: 0.025 µg/mL (≈ 0.0316 µM) | MIC [23]: 0.1 µg/mL (≈ 0.127 µM) | MIC [24]: 100 µg/mL (≈ 127 µM) | MIC [25]: 0.2 µg/mL (≈ 0.253 µM) | ED50 (reliability limits) ([26]; os): 2.14 (2.40-1.91) mg/kg | MIC [27]: 0.05 µg/mL (≈ 0.0633 µM) | MIC [28]: > 200 µg/mL | MIC [29]: 0.8 µg/mL (≈ 1.01 µM) | MIC [30]: 0.8 µg/mL (≈ 1.01 µM) | MIC [31]: 3 µg/mL (≈ 3.8 µM) | MIC [32]: 1.5 µg/mL (≈ 1.9 µM) | MIC [33]: 0.05 µg/mL (≈ 0.0633 µM) | MIC [34]: 50 µg/mL (≈ 63.3 µM) | MIC [35]: > 200 µg/mL | MIC [36]: 0.05 µg/mL (≈ 0.0633 µM) | MIC [37]: 100 µg/mL (≈ 127 µM) | Partial obstruction (% incidence) ([38]; oral, 500 mg/kg): 13.33% | Total obstruction, compact plug (% incidence) ([38]; oral, 500 mg/kg): 20% | Total obstruction, nodular mass (% incidence) ([38]; oral, 500 mg/kg): 6.66% | Total obstruction, pimply mass (% incidence) ([38]; oral, 500 mg/kg): 6.66% | MIC [39]: 50 µg/mL (≈ 63.3 µM) | LD50 at 240 h ([40]; mouse, in vivo, po, os, read-out: LD50 (reliability limits)): 3000 mg/kg | MIC [41]: 100 µg/mL (≈ 127 µM) | MIC [42]: > 200 µg/mL
